Measured values taken from ChEMBL document CHEMBL6074682, “Expanding the therapeutic window of gramicidin S towards a safe and effective systemic treatment of methicillin-resistant S. aureus infections” (Eur J Med Chem, 2025).
≈ marks a conversion by molar mass, not a printed value. Peptide text beside a SMILES is read from it.

Experiments:
[1] = Hemolytic activity in human RBC assessed as hemolysis incubated for 1 hr by absorbance based assay; format: toxicity, cell-based, Erythrocyte; settings: human red blood cells
Staphylococcus aureus [2] = test: Antibacterial activity against methicillin-sensitive Staphylococcus aureus ATCC 29213 clinical isolate assessed as bacterial growth inhibition at 256 to 0.125 ug/ml in CAMH broth medium incubated for 16 to 20 hrs by broth microdilution method; format: functional; settings: dose 256-0.125 µg/ml, time 16-20 hrs
[3] = Retention time of the compound by RP-HPLC analysis; format: physicochemical
Staphylococcus aureus [4] = test: Antibacterial activity against methicillin-resistant Staphylococcus aureus ATCC USA 300 clinical isolate assessed as bacterial growth inhibition at 256 to 0.125 ug/ml in CAMH broth medium incubated for 16 to 20 hrs by broth microdilution method; format: functional; settings: dose 256-0.125 µg/ml, time 16-20 hrs
[5] = Therapeutic index, ratio of HC50 for human RBC to MIC for antibacterial activity against methicillin-sensitive Staphylococcus aureus ATCC 29213 clinical isolate; format: toxicity, cell-based; settings: pooled result: one value given for 2 cell lines, strains, targets or settings, read-out: TI
[6] = Nephrotoxicity against HEK293 cells assessed as cell viability incubated for 24 hrs by MTT assay; format: toxicity, cell-based; settings: human

SMILES | HC50 at 1 h [1] [µg/mL] | MIC (Staphylococcus aureus [2]) [µg/mL] | Retention_time [3] [min] | MIC (Staphylococcus aureus [4]) [µg/mL] | selectivity ratio [5] | IC50 at 24 h [6] [µg/mL]
CC(C)C[C@@H]1NC(=O)[C@H](CCCN)NC(=O)[C@H](C(C)(C)C)NC(=O)[C@@H]2CCCN2C(=O)[C@@H](Cc2ccccc2)NC(=O)[C@H](CC(C)C)NC(=O)[C@H](CCCN)NC(=O)[C@H](C(C)C)NC(=O)[C@@H]2CCCN2C(=O)[C@@H](CCCNC(=N)N)NC1=O | 60.2 | 6 (≈ 5.15 µM) | 16.8 | 6 (≈ 5.15 µM) | 10 | 19.5 (≈ 16.8 µM)
CC(C)C[C@@H]1NC(=O)[C@H](CCCN)NC(=O)[C@H](C(C)(C)C)NC(=O)[C@@H]2CCCN2C(=O)[C@@H](CCCNC(=N)N)NC(=O)[C@H](CC(C)C)NC(=O)[C@H](CCCN)NC(=O)[C@H](C(C)C)NC(=O)[C@@H]2CCCN2C(=O)[C@@H](Cc2ccccc2)NC1=O | 50.5 | 7 (≈ 6.01 µM) | 16.79 | 7 (≈ 6.01 µM) | 7.21 | 38.1 (≈ 32.7 µM)
CC(C)C[C@@H]1NC(=O)[C@H](CCCN)NC(=O)[C@H](C(C)C)NC(=O)[C@H](Cc2c[nH]c3ccccc23)NC(=O)[C@@H](Cc2c[nH]c3ccccc23)NC(=O)[C@H](CC(C)C)NC(=O)[C@H](CCCN)NC(=O)[C@H](C(C)C)NC(=O)[C@H](Cc2c[nH]c3ccccc23)NC(=O)[C@@H](Cc2c[nH]c3ccccc23)NC1=O | 55.6 | 32 (≈ 22.9 µM) | 18.69 | 32 (≈ 22.9 µM) | 1.74 | 19.7 (≈ 14.1 µM)
CC(C)C[C@@H]1NC(=O)[C@H](CCCN)NC(=O)[C@H](C(C)C)NC(=O)[C@@H]2CCCN2C(=O)[C@@H](Cc2ccccc2)NC(=O)[C@H](CC(C)C)NC(=O)[C@H](CCCN)NC(=O)[C@H](C(C)C)NC(=O)[C@H](Cc2c[nH]c3ccccc23)NC(=O)[C@@H](Cc2ccccc2)NC1=O (HELM PEPTIDE1{L.[dF].P.V.[Orn].L.[dF].W.V.[Orn]}$PEPTIDE1,PEPTIDE1,1:R1-10:R2$$$V2.0) | 9.04 | 4 (≈ 3.25 µM) | 18.78 | 4 (≈ 3.25 µM) | 2.26 | 5.07 (≈ 4.12 µM)
CC(C)C[C@@H]1NC(=O)[C@H](CCCN)NC(=O)[C@H](C(C)C)NC(=O)[C@@H]2CCCN2C(=O)[C@@H](Cc2ccccc2)NC(=O)[C@H](CC(C)C)NC(=O)[C@H](CCCN)NC(=O)[C@H](C(C)C)NC(=O)[C@H](Cc2c[nH]c3ccccc23)NC(=O)[C@@H](CCCNC(=N)N)NC1=O (HELM PEPTIDE1{L.[dF].P.V.[Orn].L.[dR].W.V.[Orn]}$PEPTIDE1,PEPTIDE1,1:R1-10:R2$$$V2.0) | 32.8 | 5 (≈ 4.03 µM) | 16.56 | 5 (≈ 4.03 µM) | 6.56 | 13.6 (≈ 11 µM)
CC(C)C[C@@H]1NC(=O)[C@H](CCCN)NC(=O)[C@H](C(C)C)NC(=O)[C@@H]2CCCN2C(=O)[C@@H](Cc2ccccc2)NC(=O)[C@H](CC(C)C)NC(=O)[C@H](CCCN)NC(=O)[C@H](C(C)C)NC(=O)[C@H](Cc2c[nH]c3ccccc23)NC(=O)[C@@H](Cc2c[nH]c3ccccc23)NC1=O (HELM PEPTIDE1{L.[dF].P.V.[Orn].L.[dW].W.V.[Orn]}$PEPTIDE1,PEPTIDE1,1:R1-10:R2$$$V2.0) | 5.85 | 4 (≈ 3.15 µM) | 18.78 | 4 (≈ 3.15 µM) | 1.46 | 4.64 (≈ 3.65 µM)
CC(C)C[C@@H]1NC(=O)[C@H](CCCN)NC(=O)[C@H](C(C)(C)C)NC(=O)[C@@H]2CCCN2C(=O)[C@@H](Cc2ccccc2)NC(=O)[C@H](CC(C)C)NC(=O)[C@H](CCCN)NC(=O)[C@H](C(C)C)NC(=O)[C@@H]2CCCN2C(=O)[C@@H](Cc2ccccc2)NC1=O (HELM PEPTIDE1{L.[dF].P.[CC(C)(C)[C@H](N[*:1])C(=O)[*:2]].[Orn].L.[dF].P.V.[Orn]}$PEPTIDE1,PEPTIDE1,1:R1-10:R2$$$V2.0) | 7.49 | 4 (≈ 3.46 µM) | 19.38 | 4 (≈ 3.46 µM) | 1.87 | 5.46 (≈ 4.73 µM)
CC(C)C[C@@H]1NC(=O)[C@H](CCCN)NC(=O)[C@H](C(C)(C)C)NC(=O)[C@@H]2CCCN2C(=O)[C@@H](Cc2ccccc2)NC(=O)[C@H](CC(C)C)NC(=O)[C@H](CCCN)NC(=O)[C@H](C(C)(C)C)NC(=O)[C@@H]2CCCN2C(=O)[C@@H](Cc2ccccc2)NC1=O (HELM PEPTIDE1{L.[dF].P.[CC(C)(C)[C@H](N[*:1])C(=O)[*:2]].[Orn].L.[dF].P.[CC(C)(C)[C@H](N[*:1])C(=O)[*:2]].[Orn]}$PEPTIDE1,PEPTIDE1,1:R1-10:R2$$$V2.0) | 6.26 | 4 (≈ 3.42 µM) | 19.99 | 4 (≈ 3.42 µM) | 1.57 | 4.62 (≈ 3.95 µM)
CC(C)C[C@@H]1NC(=O)[C@H](CCCN)NC(=O)[C@H](C(C)(C)C)NC(=O)[C@@H]2CCCN2C(=O)[C@@H](Cc2ccccc2)NC(=O)[C@H](CC(C)C)NC(=O)[C@H](CCCN)NC(=O)[C@H](C(C)(C)C)NC(=O)[C@@H]2CCCN2C(=O)[C@@H](CCCNC(=N)N)NC1=O (HELM PEPTIDE1{L.[dF].P.[CC(C)(C)[C@H](N[*:1])C(=O)[*:2]].[Orn].L.[dR].P.[CC(C)(C)[C@H](N[*:1])C(=O)[*:2]].[Orn]}$PEPTIDE1,PEPTIDE1,1:R1-10:R2$$$V2.0) | 17.7 | 3 (≈ 2.55 µM) | 17.15 | 3 (≈ 2.55 µM) | 5.9 | 9.75 (≈ 8.27 µM)
CC(C)C[C@@H]1NC(=O)[C@H](CCCN)NC(=O)[C@H](C(C)C)NC(=O)[C@H](Cc2c[nH]c3ccccc23)NC(=O)[C@@H](Cc2ccccc2)NC(=O)[C@H](CC(C)C)NC(=O)[C@H](CCCN)NC(=O)[C@H](C(C)C)NC(=O)[C@H](Cc2c[nH]c3ccccc23)NC(=O)[C@@H](Cc2ccccc2)NC1=O (HELM PEPTIDE1{L.[dF].W.V.[Orn].L.[dF].W.V.[Orn]}$PEPTIDE1,PEPTIDE1,1:R1-10:R2$$$V2.0) | 12.2 | 7 (≈ 5.3 µM) | 18.58 | 7 (≈ 5.3 µM) | 1.75 | 5.03 (≈ 3.81 µM)
CC(C)C[C@@H]1NC(=O)[C@H](CCCN)NC(=O)[C@H](C(C)C)NC(=O)[C@@H]2CCCN2C(=O)[C@@H](CCCNC(=N)N)NC(=O)[C@H](CC(C)C)NC(=O)[C@H](CCCN)NC(=O)[C@H](C(C)C)NC(=O)[C@H](Cc2c[nH]c3ccccc23)NC(=O)[C@@H](Cc2ccccc2)NC1=O (HELM PEPTIDE1{L.[dF].W.V.[Orn].L.[dR].P.V.[Orn]}$PEPTIDE1,PEPTIDE1,1:R1-10:R2$$$V2.0) | 31.9 | 5 (≈ 4.03 µM) | 16.5 | 5 (≈ 4.03 µM) | 6.38 | 11.3 (≈ 9.13 µM)
CC(C)C[C@@H]1NC(=O)[C@H](CCCN)NC(=O)[C@H](C(C)C)NC(=O)[C@H](Cc2c[nH]c3ccccc23)NC(=O)[C@@H](Cc2ccccc2)NC(=O)[C@H](CC(C)C)NC(=O)[C@H](CCCN)NC(=O)[C@H](C(C)C)NC(=O)[C@H](Cc2c[nH]c3ccccc23)NC(=O)[C@@H](CCCNC(=N)N)NC1=O (HELM PEPTIDE1{L.[dF].W.V.[Orn].L.[dR].W.V.[Orn]}$PEPTIDE1,PEPTIDE1,1:R1-10:R2$$$V2.0) | 19.6 | 5 (≈ 3.76 µM) | 16.6 | 5 (≈ 3.76 µM) | 3.93 | 5.36 (≈ 4.03 µM)
